Measurements taken from the supplement of paper PMC11208160.

Test: recombinant UMI read abundance after kanamycin selection (control-corrected) (log10(CPM+1)); higher = more efficient recombination; extreme values may be limits of the assay; sequences stand for … in AGTGCAGAGAAAATCGGCCAGTTTTCTCTGCCTGCAGTCCGCATGCCGTGGGACCCCTTGGGTTCTAACCTGTTGCCTAGATTTATGCAGCGGACTGCCTTTCTCCCAAAGTGATAAACCGG…AGGTTGGTTTCACT; site = the 11-nt donor
Procedure, shortened: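 Each donor and donor-binding-loop pair was tracked by a 12-nt UMI on a plasmid carrying a promoterless kanamycin gene. With a second plasmid supplying a fixed target and T7-inducible IS621 bridge recombinase, the pool was plated in Escherichia coli on IPTG (0.07 mM) plus kanamycin or unselected. Sequencing of recombinant UMIs across the donor–target junction gave counts expressed as log10(CPM+1) after replicate averaging and control-derived scaling.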
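Further: IS621 bridge recombinase in Escherichia coli cells against a fixed T5 target plasmid.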

| Sequence | recombinant UMI read abundance (log10) |
| --- | --- |
| CCTTATACATGGACCGGTTTTCCCGGTAATCCGTATTTGGC (site CCTAATACTGC) | 0 |
| CCTTATACATGGACCGGTTTTCCCGGTAATCCGTATTTGGC (site CCTCATACTGC) | 0.021 |
| CCTTATACATGGACCGGTTTTCCCGGTAATCCGTATTTGGC (site CCTGATACTGC) | 0 |
| CCTTATACATGGACCGGTTTTCCCGGTAATCCGTATTTGGC (site CCTTATACTGC) | 0 |
| CCTTGAACATGGACCGGTTTTCCCGGTAATCCGTATTTGCT (site CCTTGAACTAG) | 0 |
| CCTTGCCCATGGACCGGTTTTCCCGGTAATCCGTATTTGAT (site ACTTGCCCTAT) | 0.00442 |
| CCTTGCCCATGGACCGGTTTTCCCGGTAATCCGTATTTGAT (site CCTTGCCCTAT) | 0.00286 |
| CCTTGCCCATGGACCGGTTTTCCCGGTAATCCGTATTTGAT (site GCTTGCCCTAT) | 0.00408 |
| CCTTGCCCATGGACCGGTTTTCCCGGTAATCCGTATTTGAT (site TCTTGCCCTAT) | 0.00903 |
| CGAACATCATGGACCGGTTTTCCCGGTAATCCGTATTTGGA (site CGAACATCTTC) | 1.93 |
| CGAACGTCATGGACCGGTTTTCCCGGTAATCCGTATTTGCG (site CGAACGTCTCG) | 2.37 |
| CGAAGATCATGGACCGGTTTTCCCGGTAATCCGTATTTGCT (site CGAAGATCTAG) | 1.51 |
| CGAAGATCATGGACCGGTTTTCCCGGTAATCCGTATTTGCT (site CGATCATCTAG) | 0 |
| CGAAGGACATGGACCGGTTTTCCCGGTAATCCGTATTTGGT (site CGAAGGACTAC) | 1.65 |
| CGAAGTGCATGGACCGGTTTTCCCGGTAATCCGTATTTGCC (site CGAAGTGCTGG) | 0.751 |
| CGAAGTGCATGGACCGGTTTTCCCGGTAATCCGTATTTGTT (site CGAAGTGCTAA) | 2.57 |
| CGAATCCCATGGACCGGTTTTCCCGGTAATCCGTATTTGCA (site CGAATCCCTTG) | 1.55 |
| CGAATTACATGGACCGGTTTTCCCGGTAATCCGTATTTGGC (site CGAATTACTGC) | 1.14 |
| CGAATTCCATGGACCGGTTTTCCCGGTAATCCGTATTTGCG (site CGAATTCCTCG) | 0.935 |
| CGAATTCCATGGACCGGTTTTCCCGGTAATCCGTATTTGTT (site CGAATTCCTAA) | 0.99 |
| CGAATTCCATGGACCGGTTTTCCCGGTAATCCGTATTTGTT (site CGGAATCCTAA) | 0 |
| CGACACGCATGGACCGGTTTTCCCGGTAATCCGTATTTGTT (site CGACACGCTAA) | 2 |
| CGACCATCATGGACCGGTTTTCCCGGTAATCCGTATTTGGC (site CGACCATCTGC) | 3.07 |
| CGACCGTCATGGACCGGTTTTCCCGGTAATCCGTATTTGCA (site CGACCGTCTTG) | 3.11 |
| CGAGCAGCATGGACCGGTTTTCCCGGTAATCCGTATTTGCT (site CAAGCAGCTAG) | 1.13 |

| Sequence | recombinant UMI read abundance (log10) |
| --- | --- |
| CGAGCAGCATGGACCGGTTTTCCCGGTAATCCGTATTTGCT (site CCAGCAGCTAG) | 0.0072 |
| CGAGCAGCATGGACCGGTTTTCCCGGTAATCCGTATTTGCT (site CGAGCAGCTAG) | 2.13 |
| CGAGCAGCATGGACCGGTTTTCCCGGTAATCCGTATTTGCT (site CGATCATCTAG) | 0 |
| CGAGCAGCATGGACCGGTTTTCCCGGTAATCCGTATTTGCT (site CTAGCAGCTAG) | 0.852 |
| CGAGCATCATGGACCGGTTTTCCCGGTAATCCGTATTTGCA (site CGAGCATCTTG) | 2.46 |
| CGAGCATCATGGACCGGTTTTCCCGGTAATCCGTATTTGCA (site CGATCATCTAG) | 0 |
| CGAGCATCATGGACCGGTTTTCCCGGTAATCCGTATTTGTT (site CGAGCATCTAA) | 2.61 |
| CGAGCATCATGGACCGGTTTTCCCGGTAATCCGTATTTGTT (site CGATCATCTAG) | 0 |
| CGAGCCTCATGGACCGGTTTTCCCGGTAATCCGTATTTGGC (site CGAGCCTCTGC) | 2.21 |
| CGAGCTTCATGGACCGGTTTTCCCGGTAATCCGTATTTGAA (site CGAGCTTCTTT) | 1.88 |
| CGAGGACCATGGACCGGTTTTCCCGGTAATCCGTATTTGAG (site CGAGGACCTCA) | 0.015 |
| CGAGGACCATGGACCGGTTTTCCCGGTAATCCGTATTTGAG (site CGAGGACCTCC) | 0 |
| CGAGGACCATGGACCGGTTTTCCCGGTAATCCGTATTTGAG (site CGAGGACCTCG) | 0.00506 |
| CGAGGACCATGGACCGGTTTTCCCGGTAATCCGTATTTGAG (site CGAGGACCTCT) | 0.00302 |
| CGAGGAGCATGGACCGGTTTTCCCGGTAATCCGTATTTGGA (site CGAGGAGCTTC) | 1.57 |
| CGAGGATCATGGACCGGTTTTCCCGGTAATCCGTATTTGAC (site CGAGGATCTGT) | 2.99 |
| CGAGGATCATGGACCGGTTTTCCCGGTAATCCGTATTTGAC (site CTAGTATCTGT) | 0 |
| CGAGGGCCATGGACCGGTTTTCCCGGTAATCCGTATTTGCA (site CGAGGGCCTTG) | 0.708 |
| CGAGGGCCATGGACCGGTTTTCCCGGTAATCCGTATTTGGG (site CGAGGACCTCC) | 0.0191 |
| CGAGGGCCATGGACCGGTTTTCCCGGTAATCCGTATTTGGG (site CGAGGCCCTCC) | 0.0184 |
| CGAGGGCCATGGACCGGTTTTCCCGGTAATCCGTATTTGGG (site CGAGGGCCTCC) | 0.0164 |
| CGAGGGCCATGGACCGGTTTTCCCGGTAATCCGTATTTGGG (site CGAGGTCCTCC) | 0.0269 |
| CGAGTACCATGGACCGGTTTTCCCGGTAATCCGTATTTGGG (site CGAGAACCTCC) | 0 |
| CGAGTACCATGGACCGGTTTTCCCGGTAATCCGTATTTGGG (site CGAGCACCTCC) | 0.0141 |
| CGAGTACCATGGACCGGTTTTCCCGGTAATCCGTATTTGGG (site CGAGGACCTCC) | 0.00419 |

| Sequence | recombinant UMI read abundance (log10) |
| --- | --- |
| CGAGTACCATGGACCGGTTTTCCCGGTAATCCGTATTTGGG (site CGAGTACCTCC) | 0.0186 |
| CGAGTGCCATGGACCGGTTTTCCCGGTAATCCGTATTTGTT (site CGAGTGCCTAA) | 0.52 |
| CGATAACCATGGACCGGTTTTCCCGGTAATCCGTATTTGGT (site CGATAACCTAC) | 0 |
| CGATACTCATGGACCGGTTTTCCCGGTAATCCGTATTTGCT (site CGATACTCTAG) | 2.52 |
| CGATACTCATGGACCGGTTTTCCCGGTAATCCGTATTTGCT (site CGATCATCTAG) | 0 |
| CGATAGACATGGACCGGTTTTCCCGGTAATCCGTATTTGCC (site AGATAGACTGG) | 0 |
| CGATAGACATGGACCGGTTTTCCCGGTAATCCGTATTTGCC (site CGATAGACTGG) | 2.96 |
| CGATAGACATGGACCGGTTTTCCCGGTAATCCGTATTTGCC (site GGATAGACTGG) | 0 |
| CGATAGACATGGACCGGTTTTCCCGGTAATCCGTATTTGCC (site TGATAGACTGG) | 0 |
| CGATAGCCATGGACCGGTTTTCCCGGTAATCCGTATTTGCT (site CGATAGCCTAG) | 1.12 |
| CGATATACATGGACCGGTTTTCCCGGTAATCCGTATTTGTA (site CGATATACTTA) | 2.25 |
| CGATATGCATGGACCGGTTTTCCCGGTAATCCGTATTTGGG (site CGATATGCTCC) | 0.685 |
| CGATCAACATGGACCGGTTTTCCCGGTAATCCGTATTTGGT (site CGATCAACTAC) | 0.796 |
| CGATCAACATGGACCGGTTTTCCCGGTAATCCGTATTTGGT (site CGATCATCTAG) | 0 |
| CGATCACCATGGACCGGTTTTCCCGGTAATCCGTATTTGCC (site CGATCACCTGG) | 0 |
| CGATCACCATGGACCGGTTTTCCCGGTAATCCGTATTTGCC (site CGATCATCTAG) | 0 |
| CGATCACCATGGACCGGTTTTCCCGGTAATCCGTATTTGCT (site CGATCAACTAG) | 0 |
| CGATCACCATGGACCGGTTTTCCCGGTAATCCGTATTTGCT (site CGATCACCTAG) | 0 |
| CGATCACCATGGACCGGTTTTCCCGGTAATCCGTATTTGCT (site CGATCAGCTAG) | 0 |
| CGATCACCATGGACCGGTTTTCCCGGTAATCCGTATTTGCT (site CGATCATCTAG) | 0 |
| CGATCAGCATGGACCGGTTTTCCCGGTAATCCGTATTTGCA (site CGATCAGCTTG) | 1.9 |
| CGATCAGCATGGACCGGTTTTCCCGGTAATCCGTATTTGCA (site CGATCATCTAG) | 0 |
| CGATCAGCATGGACCGGTTTTCCCGGTAATCCGTATTTGCT (site CGATCAACTAG) | 0 |
| CGATCAGCATGGACCGGTTTTCCCGGTAATCCGTATTTGCT (site CGATCACCTAG) | 0 |
| CGATCAGCATGGACCGGTTTTCCCGGTAATCCGTATTTGCT (site CGATCAGCTAG) | 1.61 |
